Values of other authors in patent publication US20260234616A1, “CELL-PENETRATING PEPTIDES, CONJUGATES THEREOF, AND METHODS OF THEIR USE” (PepGen Inc., priority 2022, published 2026).

Test system: dystrophin
Conditions: DMD patients; reported by the sponsor

eteplirsen
levels of dystrophin restoration in patients: approximately 1 % of normal
